In assay [1] the target is T1, NDM-1 (Klebsiella pneumoniae, UniProt C7C422). In words: Inhibition of NDM-1 catalyzed meropenem hydrolysis. Format: biochemical.
The next assay addresses VIM-2 (Escherichia coli, UniProt Q5U7L7). Description: Inhibition of VIM-2 catalyzed Fluorocillin hydrolysis. The format is biochemical.
In another assay the target is ZnZn-NDM-1 (Klebsiella pneumoniae, UniProt C7C422). In words: Equilibrium dialysis, Zn. The format is binding. To be noted: for Zn(II) retained by NDM-1 at highest tested concentration: 128 μM compound; for Inhibition mechanism against NDM-1: from equilibrium dialysis and UV-vis of CoCo-NDM-1; for Zn(II) removal from NDM-1 at 32 μM compound: Figure S2; for Zn(II) removal from NDM-1 in equilibrium dialysis: NDM-1 8 μM, compound 16 - 128 μM. A general note: In equilibrium dialysis free small molecules cross a membrane that holds back macromolecules.

For assay [2], the target named is T1, NDM-1. Description: Inhibition of NDM-1 catalyzed Fluorocillin hydrolysis. The format is biochemical.
For the next assay, the target named is IMP-1 (Serratia marcescens, UniProt P52699). In words: Inhibition of IMP-1 catalyzed Fluorocillin hydrolysis. Format: biochemical.
For assay [3], the target named is T1, NDM-1. Particulars: meropenem as substrate of NDM-1.
For assay [4], the target named is T1, NDM-1. Particulars: read-out: KM, NDM-1; Fluorocillin as substrate; ref [28], [43]; cited from earlier work.

Sequence of IMP-1 (P52699 19-246, species assumed): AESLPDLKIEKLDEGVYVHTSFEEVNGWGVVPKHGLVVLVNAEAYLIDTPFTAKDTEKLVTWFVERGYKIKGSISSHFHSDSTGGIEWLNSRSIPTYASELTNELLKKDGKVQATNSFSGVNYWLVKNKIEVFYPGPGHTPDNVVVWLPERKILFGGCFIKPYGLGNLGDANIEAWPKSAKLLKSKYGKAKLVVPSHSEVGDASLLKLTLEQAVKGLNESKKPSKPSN
T1 sequence (C7C422 29-270 limits assumed): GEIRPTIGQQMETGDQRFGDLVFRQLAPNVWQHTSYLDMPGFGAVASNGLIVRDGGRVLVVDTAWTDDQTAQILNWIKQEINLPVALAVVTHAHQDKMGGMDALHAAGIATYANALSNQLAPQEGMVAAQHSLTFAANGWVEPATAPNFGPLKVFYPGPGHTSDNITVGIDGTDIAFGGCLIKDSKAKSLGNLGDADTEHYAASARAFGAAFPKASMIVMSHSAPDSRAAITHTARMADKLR
Sequence of ZnZn-NDM-1 (C7C422 29-270, looked up): as the sequence (C7C422 29-270 limits assumed) above

For `O=C(O)c1cccc(-c2ncco2)n1` [Compound 10, 6-(Oxazol-2-yl)picolinic acid], on NDM-1 [1], the IC50 is greater than 10000 nM.

On NDM-1 [1], `O=C(O)c1cccc(-c2nccs2)n1` [Compound 9, 6-(Thiazol-2-yl)picolinic acid] gave an IC50 greater than 10000 nM.

Take `O=C(O)c1cccc(CP(=O)(O)O)n1` [Compound 2, 6-(Phosphonomethyl)picolinic acid]: the IC50 against VIM-2 came to 620 ± 10 nM; at NDM-1 [2], 68 ± 2 nM; against IMP-1, 630 ± 10 nM. For the same molecule, on ZnZn-NDM-1, the “Zn(II) retained by NDM-1 at highest tested concentration” value (“Zn(II) retained” below) is listed as “less than one equivalent was retained”. At ZnZn-NDM-1, the “Inhibition mechanism against NDM-1” value is “primarily via Zn(II) removal”.

The molecule `CS(=O)(=O)Cc1cccc(C(=O)O)n1` [Compound 6, 6-((Methylsulfonyl)methyl)picolinic acid] showed a half-maximal inhibitory concentration (IC50) against NDM-1 [1] greater than 10000 nM.

`C[C@@H](O)[C@H]1C(=O)N2C(C(=O)O)=C(S[C@@H]3CN[C@H](C(=O)N(C)C)C3)[C@H](C)[C@H]12` [Meropenem, meropenem]: the kcat on NDM-1 [3] worked out at 15.3 ± 0.4 s⁻¹.

On NDM-1 [1], `O=C(O)c1cc(-c2ccc(O)cc2)cc(CP(=O)(O)O)n1` [Compound 18e, 4-(4-Hydroxyphenyl)-6-(phosphonomethyl)picolinic acid] came in with an IC50 of 480 ± 10 nM.

Consider `Nc1ccccc1-c1cc(CP(=O)(O)O)nc(C(=O)O)c1` [Compound 18j, 4-(2-Aminophenyl)-6-(phosphonomethyl)picolinic acid], for which 240 ± 10 nM corresponded to half-maximal inhibition at NDM-1 [1] (IC50).

Turning to `Nc1cccc(-c2cc(CP(=O)(O)O)nc(C(=O)O)c2)c1` [Compound 18i, 4-(3-Aminophenyl)-6-(phosphonomethyl)picolinic acid], on ZnZn-NDM-1, the “Zn(II) removal from NDM-1 at 32 μM compound” value is on record as “only slight Zn(II) removal”, the “Zn(II) retained” value is reported as “one equivalent of Zn(II) was retained” and the “Zn(II) removal from NDM-1 in equilibrium dialysis” value is given as “reduced tendency to remove Zn(II)”. Besides, it took 400 ± 20 nM to reach half-maximal inhibition against NDM-1 [1] (IC50).

Fluorocillin: the Km on NDM-1 [4] was 0.46 µM.

For the molecule `CS(=O)(=O)Nc1cccc(C(=O)O)n1` [Compound 7, 6-(Methylsulfonamido)picolinic acid], the half-maximal inhibitory concentration (IC50) at NDM-1 [1] is greater than 10000 nM.

On to `O=C(O)c1cccc(-c2nnn[nH]2)n1` [Compound 4, 6-(1H-Tetrazol-5-yl)picolinic acid], for which the IC50 against VIM-2 was found to be 27000 ± 2000 nM; at NDM-1 [2] it was 2190 ± 130 nM; at IMP-1, 22000 ± 1000 nM; at NDM-1 [1], 7000 ± 500 nM. The “Zn(II) removal from NDM-1 in equilibrium dialysis” value on ZnZn-NDM-1 was “removing only small amounts of Zn(II)”. The “Inhibition mechanism against NDM-1” value at ZnZn-NDM-1 was “mainly via formation of a ternary complex”. This molecule also had a Ki at NDM-1 [1] of 2200 ± 500 nM.

On to `O=C(O)c1cccc(P(=O)(O)O)n1` [Compound 1, 6-Phosphonopicolinic acid], for which the half-maximal inhibitory concentration (IC50) on VIM-2 worked out at 850 ± 20 nM; on NDM-1 [2], 64 ± 1 nM; at IMP-1, 850 ± 60 nM.

Consider `C[C@H](CS)C(=O)N1CCC[C@H]1C(=O)O` [L-captopril, reference compound], for which, on ZnZn-NDM-1, the “Zn(II) removal from NDM-1 in equilibrium dialysis” value was “did not show any evidence of Zn(II) removal”.

`O=C(O)c1cccc(CS(=O)(=O)O)n1` [Compound 5, 6-(Sulfomethyl)picolinic acid] came in with an IC50 against NDM-1 [1] greater than 10000 nM.

As to `O=C(O)c1cc(-c2cccc(O)c2)cc(CP(=O)(O)O)n1` [Compound 18f, 4-(3-Hydroxyphenyl)-6-(phosphonomethyl)picolinic acid], half-maximal inhibition on NDM-1 [1] (IC50) was put at 280 ± 10 nM.

Consider `O=C(O)c1cc(-c2ccccc2O)cc(CP(=O)(O)O)n1` [Compound 18g, 4-(2-Hydroxyphenyl)-6-(phosphonomethyl)picolinic acid], for which, on NDM-1 [1], half-maximal inhibition (IC50) was put at 280 ± 10 nM.

With `O=C(O)Cc1cccc(C(=O)O)n1` [Compound 3, 6-(Carboxymethyl)picolinic acid], the IC50 at VIM-2 turned out to be 35000 ± 1000 nM; on NDM-1 [2] it was 2050 ± 90 nM; on IMP-1, 59000 ± 5000 nM; against NDM-1 [1], 7700 ± 600 nM. Moreover, at ZnZn-NDM-1, the “Zn(II) removal from NDM-1 in equilibrium dialysis” value is “removing only small amounts of Zn(II)”.

The molecule `O=C(O)c1cc(-c2cccc(Cl)c2)cc(CP(=O)(O)O)n1` [Compound 18l, 4-(3-Chlorophenyl)-6-(phosphonomethyl)picolinic acid] came in with an IC50 against NDM-1 [1] of 1290 ± 70 nM.

With `CN(Cc1cccc(C(=O)O)n1)S(C)(=O)=O` [Compound 8, 6-((N-Methylmethylsulfonamido)methyl)picolinic acid], the IC50 against NDM-1 [1] was greater than 10000 nM.

For the molecule `COc1ccccc1-c1cc(CP(=O)(O)O)nc(C(=O)O)c1` [Compound 18d, 4-(2-Methoxyphenyl)-6-(phosphonomethyl)picolinic acid], the midpoint of inhibition at NDM-1 [1], the IC50, lay at 300 ± 10 nM.

For the molecule `O=C(O)c1cc(-c2ccccc2Cl)cc(CP(=O)(O)O)n1` [Compound 18m, 4-(2-Chlorophenyl)-6-(phosphonomethyl)picolinic acid], at NDM-1 [1], 950 ± 50 nM corresponded to half-maximal inhibition (IC50).

For the molecule `O=C(O)c1cccc(C(=O)O)n1` [DPA, dipicolinic acid, reference compound], the IC50 at VIM-2 came out at 2340 ± 40 nM; against NDM-1 [2], 330 ± 40 nM. Moreover, on ZnZn-NDM-1, the “Zn(II) removal from NDM-1 in equilibrium dialysis” value is listed as “significantly reduced”.

As for `COc1ccc(-c2cc(CP(=O)(O)O)nc(C(=O)O)c2)cc1` [Compound 18b, 4-(4-Methoxyphenyl)-6-(phosphonomethyl)picolinic acid], at ZnZn-NDM-1, the “Zn(II) removal from NDM-1 at 32 μM compound” value is “only slight Zn(II) removal”, the “Zn(II) retained” value is given as “one equivalent of Zn(II) was retained” and the “Zn(II) removal from NDM-1 in equilibrium dialysis” value is on record as “reduced tendency to remove Zn(II)”. Moreover, it took 200 ± 10 nM to reach half-maximal inhibition against NDM-1 [1] (IC50).

`O=C(O)c1cc(-c2ccccc2)cc(CP(=O)(O)O)n1` [Compound 18a, 4-Phenyl-6-(phosphonomethyl)picolinic acid] came in with an IC50 on NDM-1 [1] of 410 ± 20 nM.

For `O=C(O)c1cc(-c2ccc(Cl)cc2)cc(CP(=O)(O)O)n1` [Compound 18k, 4-(4-Chlorophenyl)-6-(phosphonomethyl)picolinic acid], it took 400 ± 10 nM to reach half-maximal inhibition at NDM-1 [1] (IC50).

Take `Nc1ccc(-c2cc(CP(=O)(O)O)nc(C(=O)O)c2)cc1` [Compound 18h, 4-(4-Aminophenyl)-6-(phosphonomethyl)picolinic acid]: half-maximal inhibition against NDM-1 [1] (IC50) was put at 300 ± 10 nM.

In turn, `COc1cccc(-c2cc(CP(=O)(O)O)nc(C(=O)O)c2)c1` [Compound 18c, 4-(3-Methoxyphenyl)-6-(phosphonomethyl)picolinic acid] displayed an IC50 against NDM-1 [1] of 420 ± 20 nM.

Usually IC50 stands for the concentration that gives 50% inhibition. Read a low IC50 as higher potency. The kcat is the maximal rate divided by the concentration of active sites. What is called Km is the substrate concentration at which the rate is half of its maximum. For orientation: Ki means the dissociation constant of the complex between target and ligand, obtained from inhibition or displacement.

Source of the values: PMC6609467 (ChemMedChem, 2019).
